Reference: patent publication US11331369B2, “Endoparasitic depsipeptides” (Zoetis Services LLC, priority 2017, dated 2022)

The compounds below were run on microfilariae of Dirofilaria immitis (assay: Dirofilaria immitis, Microfilaria (DiMF) In vitro Assay). Conditions: 72 h, read-out: DiMF Minimum Effective Dose (MED), approximately 72 hours incubation, microfilariae assessed for survival or paralysis.
Type: cell-based

Compound	minimal effective concentration [µM]
CC(C)C[C@H]1C(=O)O[C@H](Cc2ccc(Cn3ccc(C#N)n3)cc2)C(=O)N(C)[C@@H](CC(C)C)C(=O)O[C@H](C)C(=O)N(C)[C@@H](CC(C)C)C(=O)O[C@H](Cc2ccc(Cn3ccc(C#N)n3)cc2)C(=O)N(C)[C@@H](CC(C)C)C(=O)O[C@H](C)C(=O)N1C [Example 1b-103, 1,1′-(((((2R,5S,8R,11S,14R,17S,20R,23S)-5,11,17,23-tetraisobutyl-4,8,10,16,20,22-hexamethyl-3,6,9,12,15,18,21,24-octaoxo-1,7,13,19-tetraoxa-4,10,16,22-tetraazacyclotetracosane-2,14-diyl)bis(methylene))bis(4,1-phenylene))bis(methylene))bis(1H-pyrazole-3-carbonitrile)]	0.001 to 0.01
CC(C)C[C@H]1C(=O)O[C@H](Cc2ccc(Cn3ccc(N4CCOCC4)n3)cc2)C(=O)N(C)[C@@H](CC(C)C)C(=O)O[C@H](C)C(=O)N(C)[C@@H](CC(C)C)C(=O)O[C@H](Cc2ccc(Cn3ccc(N4CCOCC4)n3)cc2)C(=O)N(C)[C@@H](CC(C)C)C(=O)O[C@H](C)C(=O)N1C [Example 1b-105, (3S,6R,9S,12R,15S,18R,21S,24R)-3,9,15,21-tetraisobutyl-4,6,10,16,18,22-hexamethyl-12,24-bis(4-((3-morpholino-1H-pyrazol-1-yl)methyl)benzyl)-1,7,13,19-tetraoxa-4,10,16,22-tetraazacyclotetracosan-2,5,8,11,14,17,20,23-octaone]	0.001 to 0.01
CC(C)C[C@H]1C(=O)O[C@H](Cc2ccc(Cn3ccc(C4CCC4)n3)cc2)C(=O)N(C)[C@@H](CC(C)C)C(=O)O[C@H](C)C(=O)N(C)[C@@H](CC(C)C)C(=O)O[C@H](Cc2ccc(Cn3ccc(C4CCC4)n3)cc2)C(=O)N(C)[C@@H](CC(C)C)C(=O)O[C@H](C)C(=O)N1C [Example 1b-106, (3S,6R,9S,12R,15S,18R,21S,24R)-6,18-bis(4-((3-cyclobutyl-1H-pyrazol-1-yl)methyl)benzyl)-3,9,15,21-tetraisobutyl-4,10,12,16,22,24-hexamethyl-1,7,13,19-tetraoxa-4,10,16,22-tetraazacyclotetracosan-2,5,8,11,14,17,20,23-octaone]	0.01 to 0.1
CC(C)C[C@H]1C(=O)O[C@H](Cc2ccc(Cn3ccc(-c4ccoc4)n3)cc2)C(=O)N(C)[C@@H](CC(C)C)C(=O)O[C@H](C)C(=O)N(C)[C@@H](CC(C)C)C(=O)O[C@H](Cc2ccc(Cn3ccc(-c4ccoc4)n3)cc2)C(=O)N(C)[C@@H](CC(C)C)C(=O)O[C@H](C)C(=O)N1C [Example 1b-111, (3S,6R,9S,12R,15S,18R,21S,24R)-6,18-bis(4-((3-(furan-3-yl)-1H-pyrazol-1-yl)methyl)benzyl)-3,9,15,21-tetraisobutyl-4,10,12,16,22,24-hexamethyl-1,7,13,19-tetraoxa-4,10,16,22-tetraazacyclotetracosan-2,5,8,11,14,17,20,23-octaone]	0.01 to 0.1
CC(C)C[C@H]1C(=O)O[C@H](Cc2ccc(Cn3cc(C4CCOCC4)cn3)cc2)C(=O)N(C)[C@@H](CC(C)C)C(=O)O[C@H](C)C(=O)N(C)[C@@H](CC(C)C)C(=O)O[C@H](Cc2ccc(Cn3cc(C4CCOCC4)cn3)cc2)C(=O)N(C)[C@@H](CC(C)C)C(=O)O[C@H](C)C(=O)N1C [Example 1b-116, (3S,6R,9S,12R,15S,18R,21S,24R)-3,9,15,21-tetraisobutyl-4,6,10,16,18,22-hexamethyl-12,24-bis(4-((4-(tetrahydro-2H-pyran-4-yl)-1H-pyrazol-1-yl)methyl)benzyl)-1,7,13,19-tetraoxa-4,10,16,22-tetraazacyclotetracosan-2,5,8,11,14,17,20,23-octaone]	0.01 to 0.1
Cc1nn(Cc2ccc(C[C@H]3OC(=O)[C@H](CC(C)C)N(C)C(=O)[C@@H](C)OC(=O)[C@H](CC(C)C)N(C)C(=O)[C@@H](Cc4ccc(Cn5nc(C)c(C#N)c5C)cc4)OC(=O)[C@H](CC(C)C)N(C)C(=O)[C@@H](C)OC(=O)[C@H](CC(C)C)N(C)C3=O)cc2)c(C)c1C#N [Example 1b-117, 1,1′-(((((2R,5S,8R,11S,14R,17S,20R,23S)-5,11,17,23-tetraisobutyl-4,8,10,16,20,22-hexamethyl-3,6,9,12,15,18,21,24-octaoxo-1,7,13,19-tetraoxa-4,10,16,22-tetraazacyclotetracosane-2,14-diyl)bis(methylene))bis(4,1-phenylene))bis(methylene))bis(3,5-dimethyl-1H-pyrazole-4-carbonitrile)]	0.01 to 0.1
CC(C)C[C@H]1C(=O)O[C@H](Cc2ccc(Cn3ccc(-c4ccccn4)n3)cc2)C(=O)N(C)[C@@H](CC(C)C)C(=O)O[C@H](C)C(=O)N(C)[C@@H](CC(C)C)C(=O)O[C@H](Cc2ccc(Cn3ccc(-c4ccccn4)n3)cc2)C(=O)N(C)[C@@H](CC(C)C)C(=O)O[C@H](C)C(=O)N1C [Example 1b-120, (3S,6R,9S,12R,15S,18R,21S,24R)-3,9,15,21-tetraisobutyl-4,6,10,16,18,22-hexamethyl-12,24-bis(4-((3-(pyridin-2-yl)-1H-pyrazol-1-yl)methyl)benzyl)-1,7,13,19-tetraoxa-4,10,16,22-tetraazacyclotetracosan-2,5,8,11,14,17,20,23-octaone]	0.01 to 0.1
Cc1c(CO)nn(Cc2ccc(C[C@H]3OC(=O)[C@H](CC(C)C)N(C)C(=O)[C@@H](C)OC(=O)[C@H](CC(C)C)N(C)C(=O)[C@@H](Cc4ccc(Cn5nc(CO)c(C)c5C(F)(F)F)cc4)OC(=O)[C@H](CC(C)C)N(C)C(=O)[C@@H](C)OC(=O)[C@H](CC(C)C)N(C)C3=O)cc2)c1C(F)(F)F [Example 1b-124, (3S,6R,9S,12R,15S,18R,21S,24R)-6,18-bis(4-((3-(hydroxymethyl)-4-methyl-5-(trifluoromethyl)-1H-pyrazol-1-yl)methyl)benzyl)-3,9,15,21-tetraisobutyl-4,10,12,16,22,24-hexamethyl-1,7,13,19-tetraoxa-4,10,16,22-tetraazacyclotetracosan-2,5,8,11,14,17,20,23-octaone]	0.01 to 0.1
CCc1nn(Cc2ccc(C[C@H]3OC(=O)[C@H](CC(C)C)N(C)C(=O)[C@@H](C)OC(=O)[C@H](CC(C)C)N(C)C(=O)[C@@H](Cc4ccc(Cn5nc(CC)c(N)c5CC)cc4)OC(=O)[C@H](CC(C)C)N(C)C(=O)[C@@H](C)OC(=O)[C@H](CC(C)C)N(C)C3=O)cc2)c(CC)c1N [Example 1b-133, (3S,6R,9S,12R,15S,18R,21S,24R)-6,18-bis(4-((4-amino-3,5-diethyl-1H-pyrazol-1-yl)methyl)benzyl)-3,9,15,21-tetraisobutyl-4,10,12,16,22,24-hexamethyl-1,7,13,19-tetraoxa-4,10,16,22-tetraazacyclotetracosan-2,5,8,11,14,17,20,23-octaone]	0.01 to 0.1
Cc1nn(Cc2ccc(C[C@H]3OC(=O)[C@H](CC(C)C)N(C)C(=O)[C@@H](C)OC(=O)[C@H](CC(C)C)N(C)C(=O)[C@@H](Cc4ccc(Cn5cc(C#N)c(C)n5)cc4)OC(=O)[C@H](CC(C)C)N(C)C(=O)[C@@H](C)OC(=O)[C@H](CC(C)C)N(C)C3=O)cc2)cc1C#N [Example 1b-135, 1,1′-(((((2R,5S,8R,11S,14R,17S,20R,23S)-5,11,17,23-tetraisobutyl-4,8,10,16,20,22-hexamethyl-3,6,9,12,15,18,21,24-octaoxo-1,7,13,19-tetraoxa-4,10,16,22-tetraazacyclotetracosane-2,14-diyl)bis(methylene))bis(4,1-phenylene))bis(methylene))bis(3-methyl-1H-pyrazole-4-carbonitrile)]	0.001 to 0.01
CC(C)C[C@H]1C(=O)O[C@H](Cc2ccc(Cn3ccc(-c4ccncc4)n3)cc2)C(=O)N(C)[C@@H](CC(C)C)C(=O)O[C@H](C)C(=O)N(C)[C@@H](CC(C)C)C(=O)O[C@H](Cc2ccc(Cn3ccc(-c4ccncc4)n3)cc2)C(=O)N(C)[C@@H](CC(C)C)C(=O)O[C@H](C)C(=O)N1C [Example 1b-138, (3S,6R,9S,12R,15S,18R,21S,24R)-3,9,15,21-tetraisobutyl-4,6,10,16,18,22-hexamethyl-12,24-bis(4-((3-(pyridin-4-yl)-1H-pyrazol-1-yl)methyl)benzyl)-1,7,13,19-tetraoxa-4,10,16,22-tetraazacyclotetracosan-2,5,8,11,14,17,20,23-octaone]	0.01 to 0.1
CC(C)C[C@H]1C(=O)O[C@H](Cc2ccc(Cn3ccc(-c4cccnc4)n3)cc2)C(=O)N(C)[C@@H](CC(C)C)C(=O)O[C@H](C)C(=O)N(C)[C@@H](CC(C)C)C(=O)O[C@H](Cc2ccc(Cn3ccc(-c4cccnc4)n3)cc2)C(=O)N(C)[C@@H](CC(C)C)C(=O)O[C@H](C)C(=O)N1C [Example 1b-139, (3S,6R,9S,12R,15S,18R,21S,24R)-3,9,15,21-tetraisobutyl-4,6,10,16,18,22-hexamethyl-12,24-bis(4-((3-(pyridin-3-yl)-1H-pyrazol-1-yl)methyl)benzyl)-1,7,13,19-tetraoxa-4,10,16,22-tetraazacyclotetracosan-2,5,8,11,14,17,20,23-octaone]	0.01 to 0.1
CC(C)C[C@H]1C(=O)O[C@H](Cc2ccc(Cn3cc(OC(F)F)cn3)cc2)C(=O)N(C)[C@@H](CC(C)C)C(=O)O[C@H](C)C(=O)N(C)[C@@H](CC(C)C)C(=O)O[C@H](Cc2ccc(Cn3cc(OC(F)F)cn3)cc2)C(=O)N(C)[C@@H](CC(C)C)C(=O)O[C@H](C)C(=O)N1C [Example 1b-140, (3S,6R,9S,12R,15S,18R,21S,24R)-6,18-bis(4-((4-(difluoromethoxy)-1H-pyrazol-1-yl)methyl)benzyl)-3,9,15,21-tetraisobutyl-4,10,12,16,22,24-hexamethyl-1,7,13,19-tetraoxa-4,10,16,22-tetraazacyclotetracosan-2,5,8,11,14,17,20,23-octaone]	0.01 to 0.1
CC(C)C[C@H]1C(=O)O[C@H](Cc2ccc(Cn3cc(OC4CCC4)cn3)cc2)C(=O)N(C)[C@@H](CC(C)C)C(=O)O[C@H](C)C(=O)N(C)[C@@H](CC(C)C)C(=O)O[C@H](Cc2ccc(Cn3cc(OC4CCC4)cn3)cc2)C(=O)N(C)[C@@H](CC(C)C)C(=O)O[C@H](C)C(=O)N1C [Example 1b-141, (3S,6R,9S,12R,15S,18R,21S,24R)-6,18-bis(4-((4-cyclobutoxy-1H-pyrazol-1-yl)methyl)benzyl)-3,9,15,21-tetraisobutyl-4,10,12,16,22,24-hexamethyl-1,7,13,19-tetraoxa-4,10,16,22-tetraazacyclotetracosan-2,5,8,11,14,17,20,23-octaone]	0.01 to 0.1
